Measured values published in US20240215576A1, “HEAT-RESISTANT MOLD GROWTH INHIBITOR, FOOD AND DRINK IN WHICH GROWTH OF HEAT-RESISTANT MOLD IS INHIBITED, AND METHOD FOR INHIBITING GROWTH OF HEAT-RESISTANT MOLD” (NIPPON SHINYAKU CO., LTD., priority 2021, published 2024).
Structures can show the parent of a compound that is named as a salt.

What was measured:
[1] = test system: N. primulina; assay: Growth of N. primulina in Trypticase soy broth medium stored 7 days at 25° C.; assay type: cell-based, Neosartorya primulina; details: for Growth of N. primulina after lapse of 7 days under storage at 25° C.: concentration 1000 ppm; for growth inhibition effect against N. primulina: 1000 ppm
Protocol: (§1) Diethyl fumarate and 2-decenoic acid were prepared for use in Examples. In addition, the following components reported to have a growth inhibition effect against normal mold (non-heat-resistant mold) were prepared for use in Comparative Examples: palmitic acid, trans-anethole, benzyl alcohol, cinnamic acid, hinokitiol, salicylic acid, hexanal, 2-mercapto benzothiazole, p-cymene, 1,8-cineole, α-pinene, estragole, 4-hydroxy-3,5-dimethoxybenzoic acid, and linalyl acetate. Then, each component was added to a medium of Trypticase soy broth such that the concentration of each component was as shown in Table 3 below.
(§2) These media were stored for 7 days under an atmosphere at 25° C. […] In Table, those showing the growth are represented by “+,” and those showing no growth are represented by “−.”

[2] = test system: B. fulva; assay: Growth of B. fulva in Trypticase soy broth medium stored 7 days at 25° C.; assay type: cell-based, Byssochlamys fulva; details: for Growth of B. fulva after lapse of 7 days under storage at 25° C.: concentration 1000 ppm; for growth inhibition effect against B. fulva: 1000 ppm
Protocol: as §1, §2

[3] = test system: B. fulva; assay: Growth of B. fulva in tomato juice stored at 25° C.; assay type: cell-based, Byssochlamys fulva; details: for generation of B. fulva after the lapse of 14 days: 25° C., high concentration of the active component (270 ppm); for Growth of B. fulva, 3 days / Growth of B. fulva, 5 days / Growth of B. fulva, 7 days / Growth of B. fulva, 10 days / Growth of B. fulva, 14 days: storage at 25° C.
Protocol: Diethyl fumarate or 2-decenoic acid was added to tomato juice (100% pure, salt-free) such that the concentration of the component was as shown in Table 1 below. […] In Table 1, those showing the growth of B. fulva are represented by “+,” and those showing no growth are represented by “−.”

[4] = test system: N. primulina; assay: Growth of N. primulina in tomato juice stored at 25° C.; assay type: cell-based, Neosartorya primulina; set-up: key to Growth of N. primulina, 5 days / Growth of N. primulina, 7 days / Growth of N. primulina, 10 days / Growth of N. primulina, 14 days: those showing the growth of N. primulina are represented by “+,”; those showing no growth are represented by “−.”; details: for growth inhibition effect against N. primulina after the lapse of 14 days: high concentration of the active component (270 ppm); for Growth of N. primulina, 3 days / Growth of N. primulina, 5 days / Growth of N. primulina, 7 days / Growth of N. primulina, 10 days / Growth of N. primulina, 14 days: storage at 25° C.
Protocol: Diethyl fumarate or 2-decenoic acid was added to tomato juice (100% pure, salt-free) such that the concentration of the component was as shown in Table 2 below. […] In Table 2, those showing the growth of N. primulina are represented by “+,” and those showing no growth are represented by “−.”

CC12CCC(CC1)C(C)(C)O2 [1,8-Cineole]
Growth of N. primulina after lapse of 7 days under storage at 25° C. [1]: +
Growth of B. fulva after lapse of 7 days under storage at 25° C. [2]: +

CCCCCCC/C=C/C(=O)O [2-Decenoic acid, (E)-dec-2-enoic acid]
growth inhibition effect against N. primulina [1]: exhibit the growth inhibition effect
Growth of N. primulina after lapse of 7 days under storage at 25° C. [1]: −
growth inhibition effect against B. fulva [2]: exhibit the growth inhibition effect
Growth of B. fulva after lapse of 7 days under storage at 25° C. [2]: −
generation of B. fulva after the lapse of 14 days [3]: no generation
Growth of B. fulva, 3 days ([3]; 70 ppm): −
Growth of B. fulva, 5 days ([3]; 70 ppm): −
Growth of B. fulva, 7 days ([3]; 70 ppm): −
Growth of B. fulva, 10 days ([3]; 70 ppm): +
Growth of B. fulva, 14 days ([3]; 70 ppm): +
Growth of B. fulva, 3 days ([3]; 270 ppm): −
Growth of B. fulva, 5 days ([3]; 270 ppm): −
Growth of B. fulva, 7 days ([3]; 270 ppm): −
Growth of B. fulva, 10 days ([3]; 270 ppm): −
Growth of B. fulva, 14 days ([3]; 270 ppm): −
growth inhibition effect against N. primulina after the lapse of 14 days ([4]; 25° C.): the effect is maintained
Growth of N. primulina, 3 days ([4]; 70 ppm): −
Growth of N. primulina, 5 days ([4]; 70 ppm): +
Growth of N. primulina, 7 days ([4]; 70 ppm): +
Growth of N. primulina, 10 days ([4]; 70 ppm, 10 days): +
Growth of N. primulina, 14 days ([4]; 70 ppm): +
Growth of N. primulina, 3 days ([4]; 270 ppm): −
Growth of N. primulina, 5 days ([4]; 270 ppm): −
Growth of N. primulina, 7 days ([4]; 270 ppm): −
Growth of N. primulina, 10 days ([4]; 270 ppm, 10 days): −
Growth of N. primulina, 14 days ([4]; 270 ppm): −

Sc1nc2ccccc2s1 [2-Mercapto benzothiazole]
Growth of N. primulina after lapse of 7 days under storage at 25° C. [1]: +
Growth of B. fulva after lapse of 7 days under storage at 25° C. [2]: +

COc1cc(C(=O)O)cc(OC)c1O [4-Hydroxy-3,5-dimethoxybenzoic acid]
Growth of N. primulina after lapse of 7 days under storage at 25° C. [1]: +
Growth of B. fulva after lapse of 7 days under storage at 25° C. [2]: +

OCc1ccccc1 [Benzyl alcohol]
Growth of N. primulina after lapse of 7 days under storage at 25° C. [1]: +
Growth of B. fulva after lapse of 7 days under storage at 25° C. [2]: +

O=C(O)C=Cc1ccccc1 [Cinnamic acid]
Growth of N. primulina after lapse of 7 days under storage at 25° C. [1]: +
Growth of B. fulva after lapse of 7 days under storage at 25° C. [2]: +

CCOC(=O)/C=C/C(=O)OCC [Diethyl fumarate, diethyl (E)-but-2-enedioate]
growth inhibition effect against N. primulina [1]: exhibit the growth inhibition effect
Growth of N. primulina after lapse of 7 days under storage at 25° C. [1]: −
growth inhibition effect against B. fulva [2]: exhibit the growth inhibition effect
Growth of B. fulva after lapse of 7 days under storage at 25° C. [2]: −
generation of B. fulva after the lapse of 14 days [3]: no generation
Growth of B. fulva, 3 days ([3]; 70 ppm): −
Growth of B. fulva, 5 days ([3]; 70 ppm): −
Growth of B. fulva, 7 days ([3]; 70 ppm): −
Growth of B. fulva, 10 days ([3]; 70 ppm): +
Growth of B. fulva, 14 days ([3]; 70 ppm): +
Growth of B. fulva, 3 days ([3]; 270 ppm): −
Growth of B. fulva, 5 days ([3]; 270 ppm): −
Growth of B. fulva, 7 days ([3]; 270 ppm): −
Growth of B. fulva, 10 days ([3]; 270 ppm): −
Growth of B. fulva, 14 days ([3]; 270 ppm): −
generation of N. primulina after the lapse of 10 days ([4]; 25° C., 10 days): no generation
growth inhibition effect against N. primulina after the lapse of 14 days ([4]; 25° C.): the effect is maintained
Growth of N. primulina, 3 days ([4]; 70 ppm): −
Growth of N. primulina, 5 days ([4]; 70 ppm): −
Growth of N. primulina, 7 days ([4]; 70 ppm): −
Growth of N. primulina, 10 days ([4]; 70 ppm, 10 days): −
Growth of N. primulina, 14 days ([4]; 70 ppm): +
Growth of N. primulina, 3 days ([4]; 270 ppm): −
Growth of N. primulina, 5 days ([4]; 270 ppm): −
Growth of N. primulina, 7 days ([4]; 270 ppm): −
Growth of N. primulina, 10 days ([4]; 270 ppm, 10 days): −
Growth of N. primulina, 14 days ([4]; 270 ppm): −

C=CCc1ccc(OC)cc1 [Estragole]
Growth of N. primulina after lapse of 7 days under storage at 25° C. [1]: +
Growth of B. fulva after lapse of 7 days under storage at 25° C. [2]: +

CCCCCC=O [Hexanal]
Growth of N. primulina after lapse of 7 days under storage at 25° C. [1]: +
Growth of B. fulva after lapse of 7 days under storage at 25° C. [2]: +

CC(C)c1cccc(=O)c(O)c1 [Hinokitiol]
Growth of N. primulina after lapse of 7 days under storage at 25° C. [1]: +
Growth of B. fulva after lapse of 7 days under storage at 25° C. [2]: +

C=CC(C)(CCC=C(C)C)OC(C)=O (stereo not drawn) [Linalyl acetate]
Growth of N. primulina after lapse of 7 days under storage at 25° C. [1]: +
Growth of B. fulva after lapse of 7 days under storage at 25° C. [2]: +

CCCCCCCCCCCCCCCC(=O)O [Palmitic acid]
Growth of N. primulina after lapse of 7 days under storage at 25° C. [1]: +
Growth of B. fulva after lapse of 7 days under storage at 25° C. [2]: +

O=C(O)c1ccccc1O [Salicylic acid]
Growth of N. primulina after lapse of 7 days under storage at 25° C. [1]: +
Growth of B. fulva after lapse of 7 days under storage at 25° C. [2]: +

C/C=C/c1ccc(OC)cc1 [Trans-anethole]
Growth of N. primulina after lapse of 7 days under storage at 25° C. [1]: +
Growth of B. fulva after lapse of 7 days under storage at 25° C. [2]: +

Cc1ccc(C(C)C)cc1 [p-Cymene]
Growth of N. primulina after lapse of 7 days under storage at 25° C. [1]: +
Growth of B. fulva after lapse of 7 days under storage at 25° C. [2]: +

CC1=CCC2CC1C2(C)C (stereo not drawn) [α-Pinene]
Growth of N. primulina after lapse of 7 days under storage at 25° C. [1]: +
Growth of B. fulva after lapse of 7 days under storage at 25° C. [2]: +
